# Target: T1, Androgen Receptor, LNCaP (AR T878A) (Homo sapiens, UniProt P10275, T878A)
# T1 construct: endogenous in cells; host or cells: LNCaP
# T1 sequence (P10275 1-920 T878A): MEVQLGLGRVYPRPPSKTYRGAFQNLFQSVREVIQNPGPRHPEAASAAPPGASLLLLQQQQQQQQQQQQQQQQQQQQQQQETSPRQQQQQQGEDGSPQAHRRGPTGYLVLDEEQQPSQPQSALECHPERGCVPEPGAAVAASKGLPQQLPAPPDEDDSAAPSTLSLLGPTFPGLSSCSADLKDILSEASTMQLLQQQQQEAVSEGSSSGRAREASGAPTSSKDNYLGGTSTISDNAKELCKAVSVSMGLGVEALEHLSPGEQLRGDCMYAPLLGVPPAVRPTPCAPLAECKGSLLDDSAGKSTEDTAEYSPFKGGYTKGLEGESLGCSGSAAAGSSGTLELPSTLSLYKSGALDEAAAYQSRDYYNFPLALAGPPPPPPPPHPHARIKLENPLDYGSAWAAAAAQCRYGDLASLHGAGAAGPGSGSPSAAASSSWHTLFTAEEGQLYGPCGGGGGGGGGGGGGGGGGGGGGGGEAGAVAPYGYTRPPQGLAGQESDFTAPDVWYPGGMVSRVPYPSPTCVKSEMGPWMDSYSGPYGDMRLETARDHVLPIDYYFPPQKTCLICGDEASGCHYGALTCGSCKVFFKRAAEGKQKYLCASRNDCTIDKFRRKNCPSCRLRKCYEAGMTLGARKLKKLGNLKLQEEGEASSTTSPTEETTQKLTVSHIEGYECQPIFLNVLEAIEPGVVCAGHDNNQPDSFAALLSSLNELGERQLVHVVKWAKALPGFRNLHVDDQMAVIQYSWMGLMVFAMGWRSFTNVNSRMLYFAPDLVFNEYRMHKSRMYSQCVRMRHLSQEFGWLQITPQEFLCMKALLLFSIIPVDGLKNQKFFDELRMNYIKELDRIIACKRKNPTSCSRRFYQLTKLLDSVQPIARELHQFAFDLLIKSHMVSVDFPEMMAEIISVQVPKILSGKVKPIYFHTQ
# Test: Androgen Receptor Degradation-Imaging Assay, LNCaP cell line
# Format: cell-based
# Conditions: 16 hours treatment, maximum observed degradation
# Procedure: Degradation of Androgen Receptor (AR) protein in human prostate cancer cell lines (MDA-PCa-2b (AR T878A/L702H), LNCaP (AR T878A), VCaP (AR wild type and amplified) 22RV1 (AR H875Y) and PC3 (AR negative control)) treated with AR PROTACs was quantified using immunofluorescence. Prostate cancer cells were plated (MDA-PCa-2b, and VCaP 16,000 cells/well; LNCaP and 22RV1 32,000 cells/well, and PC3 8,000 cells/well) in an optical bottom 96-well cell culture plate and allowed to attach overnight. The prostate cancer cell lines were treated for 16 hours with a 10-point 3-fold dilution series (dose range=0.02 nM to 333 nM). PC3 is included as an AR negative control and not treated with compound. Cells are fixed and permeabilized with 4% formaldehyde, blocked with 10% goat serum in immunofluorescence (IF) buffer (130 mM NaCl, 7 mM Na2HPO4, 3.5 mM NaH2PO4, 7.7 mM NaN3, 0.1% BSA, 0.2% Triton X, 0.05% Tween 20) prior to overnight incubation with rabbit antibody specific for C terminus of AR (commercially available from RevMaB Biosciences). Following washes with IF buffer, cells were incubated with fluorescent secondary antibody (Goat anti-rabbit Alexa 647; commercially available from Invitrogen) and Hoechst nuclear stain (commercially available from Themo Scientific) prior to quantification of nuclear AR levels via Opera Phenix high-content fluorescent imager using a 40× water objective. Image analysis was performed with Harmony software.
# The averaged nuclear Alexa 647 median fluorescence intensity (MFI) of PC3 cells is subtracted from the nuclear Alexa 647 MFI of PROTAC treated and DMSO control treated cells. % AR remaining is calculated for PROTAC treatments as a percent of the DMSO control (MFI PROTAC treated/MFI DMSO control treated)*100). DC50 and the Dmax values, were obtained from these normalised values fitted with a 4-parameter sigmoidal response curve (Xlfit software). The DC50 is the interpolated concentration of PROTAC corresponding to 50% of the protein being degraded, and the Dmax parameter is the maximum experimentally observed degradation.
row,Dmax [%],SMILES
1,≥ 80,"CC1(C)[C@H](NC(=O)c2ccc(N3CCC(CN4CCC(n5ncc6c(N7CCC(=O)NC7=O)cccc65)CC4)CC3)c(F)c2)C(C)(C)[C@H]1Oc1ccc(C#N)c2ncccc12 [Example 6, N-((1r,3r)-3-((8-Cyanoquinolin-5-yl)oxy)-2,2,4,4-tetramethylcyclobutyl)-4-(4-((4-(4-(2,4-dioxotetrahydropyrimidin-1(2H)-yl)-1H-indazol-1-yl)piperidin-1-yl)methyl)piperidin-1-yl)-3-fluorobenzamide]"
2,≥ 80,"CC1(C)[C@H](NC(=O)c2ccc(N3CCC(CN4CCC(n5ncc6c(N7CCC(=O)NC7=O)cccc65)CC4)CC3)c(F)c2)C(C)(C)[C@H]1Oc1ccc(C#N)c2c1CCCO2 [Example 8, N-((1r,3r)-3-((8-Cyanochroman-5-yl)oxy)-2,2,4,4-tetramethylcyclobutyl)-4-(4-((4-(4-(2,4-dioxotetrahydropyrimidin-1(2H)-yl)-1H-indazol-1-yl)piperidin-1-yl)methyl)piperidin-1-yl)-3-fluorobenzamide]"
3,≥ 80,"COc1cc(O[C@H]2C(C)(C)[C@H](NC(=O)c3ccc(N4CCC(CN5CCC(n6ncc7c(N8CCC(=O)NC8=O)cccc76)CC5)CC4)cc3)C2(C)C)ccc1C#N [Example 15, N-((1r,3r)-3-(4-Cyano-3-methoxyphenoxy)-2,2,4,4-tetramethylcyclobutyl)-4-(4-((4-(4-(2,4-dioxotetrahydropyrimidin-1(2H)-yl)-1H-indazol-1-yl)piperidin-1-yl)methyl)piperidin-1-yl)benzamide]"
4,≥ 80,"COc1cc(O[C@H]2C(C)(C)[C@H](NC(=O)c3ccc(N4CCC(CN5CCC(n6ccc7c(N8CCC(=O)NC8=O)cccc76)CC5)CC4)cc3)C2(C)C)ccc1C#N [Example 16, N-((1r,3r)-3-(4-Cyano-3-methoxyphenoxy)-2,2,4,4-tetramethylcyclobutyl)-4-(4-((4-(4-(2,4-dioxotetrahydropyrimidin-1(2H)-yl)-1H-indol-1-yl)piperidin-1-yl)methyl)piperidin-1-yl)benzamide]"
5,≥ 80,"COc1cc(O[C@H]2C(C)(C)[C@H](NC(=O)c3ccc(N4CCC(CN5CCC(n6ncc7c(N8CCC(=O)NC8=O)nccc76)CC5)CC4)c(F)c3)C2(C)C)ccc1C#N [Example 20, N-((1r,3r)-3-(4-Cyano-3-methoxyphenoxy)-2,2,4,4-tetramethylcyclobutyl)-4-(4-((4-(4-(2,4-dioxotetrahydropyrimidin-1(2H)-yl)-1H-pyrazolo[4,3-c]pyridin-1-yl)piperidin-1-yl)methyl)piperidin-1-yl)-3-fluorobenzamide]"
6,≥ 80,"CC1(C)[C@H](NC(=O)c2ccc(N3CCC(CN4CCC(n5ccc6c(N7CCC(=O)NC7=O)ncnc65)CC4)CC3)cc2)C(C)(C)[C@H]1Oc1ccc(C#N)c2ncccc12 [Example 28, N-((1r,3r)-3-((8-Cyanoquinolin-5-yl)oxy)-2,2,4,4-tetramethylcyclobutyl)-4-(4-((4-(4-(2,4-dioxotetrahydropyrimidin-1(2H)-yl)-7H-pyrrolo[2,3-d]pyrimidin-7-yl)piperidin-1-yl)methyl)piperidin-1-yl)benzamide]"
7,≥ 80,"CC1(C)[C@H](NC(=O)c2cc(F)c(N3CCC(CN4CCC(n5ncc6c(N7CCC(=O)NC7=O)cccc65)CC4)CC3)c(F)c2)C(C)(C)[C@H]1Oc1ccc(C#N)c2ncccc12 [Example 30, N-((1r,3r)-3-((8-Cyanoquinolin-5-yl)oxy)-2,2,4,4-tetramethylcyclobutyl)-4-(4-((4-(4-(2,4-dioxotetrahydropyrimidin-1(2H)-yl)-1H-indazol-1-yl)piperidin-1-yl)methyl)piperidin-1-yl)-3,5-difluorobenzamide]"
8,≥ 80,"CC1(C)[C@H](NC(=O)c2ccc(N3CCC(CN4CCC(n5ccc6c(N7CCC(=O)NC7=O)cc(F)cc65)CC4)CC3)c(F)c2)C(C)(C)[C@H]1Oc1ccc(C#N)c2ncccc12 [Example 32, N-((1r,3r)-3-((8-Cyanoquinolin-5-yl)oxy)-2,2,4,4-tetramethylcyclobutyl)-4-(4-((4-(4-(2,4-dioxotetrahydropyrimidin-1(2H)-yl)-6-fluoro-1H-indol-1-yl)piperidin-1-yl)methyl)piperidin-1-yl)-3-fluorobenzamide]"
9,≥ 80,"CC1(C)[C@H](NC(=O)c2ccc(N3CCC(CN4CCC(n5ncc6c(N7CCC(=O)NC7=O)nccc65)CC4)CC3)c(F)c2)C(C)(C)[C@H]1Oc1ccc(C#N)c2ncccc12 [Example 39, N-((1r,3r)-3-((8-Cyanoquinolin-5-yl)oxy)-2,2,4,4-tetramethylcyclobutyl)-4-(4-((4-(4-(2,4-dioxotetrahydropyrimidin-1(2H)-yl)-1H-pyrazolo[4,3-c]pyridin-1-yl)piperidin-1-yl)methyl)piperidin-1-yl)-3-fluorobenzamide]"
10,≥ 80,"CC1(C)[C@H](NC(=O)c2ccc(N3CCC(CN4CCC(n5ccc6c(N7CCC(=O)NC7=O)ncnc65)CC4)CC3)c(F)c2)C(C)(C)[C@H]1Oc1ccc(C#N)c2ncccc12 [Example 47, N-((1r,3r)-3-((8-Cyanoquinolin-5-yl)oxy)-2,2,4,4-tetramethylcyclobutyl)-4-(4-((4-(4-(2,4-dioxotetrahydropyrimidin-1(2H)-yl)-7H-pyrrolo[2,3-d]pyrimidin-7-yl)piperidin-1-yl)methyl)piperidin-1-yl)-3-fluorobenzamide]"
11,≥ 80,"CC1(C)[C@H](NC(=O)c2ccc(N3CCC(O)(CN4CCC(n5ncc6c(N7CCC(=O)NC7=O)cccc65)CC4)CC3)c(F)c2)C(C)(C)[C@H]1Oc1ccc(C#N)c2ncccc12 [Example 48, N-((1r,3r)-3-((8-Cyanoquinolin-5-yl)oxy)-2,2,4,4-tetramethylcyclobutyl)-4-(4-((4-(4-(2,4-dioxotetrahydropyrimidin-1(2H)-yl)-1H-indazol-1-yl)piperidin-1-yl)methyl)-4-hydroxypiperidin-1-yl)-3-fluorobenzamide]"

# Source: patent US12577231B2, “Androgen receptor PROTACS” (GlaxoSmithKline Intellectual Property Development Limited, priority 2023, dated 2026)
